# Source: patent US8268821B2, “Methods and compositions” (priority 2003, dated 2012)
# Marks after values point to notes of the source that are not given here.
# System: cancer-related neuropathic pain
# Assay: Open label dose escalation study of flupirtine, case studies JE and RM
# Details: flupirtine 100 mg qid; for neuropathic discriminant function score: >0 = neuropathic, day 1 baseline 0.262; for electric pain score / freezing pain score / numbness score / score for increased pain due to touch / score for increased pain due to weather changes / squeezing pain score / LEAST PAIN LAST 24 HRS: day 1 baseline 0; for PERCENTAGE PAIN RELIEF LAST 24 HOURS / WORST PAIN SCORE LAST 24 HOURS: day 1 baseline 10; for score for overly sensitive to touch / tingling pain score: day 1 baseline 20; for burning pain score / overwhelming pain score: day 1 baseline 90; for for shooting pain score / unpleasant pain score: day 1 baseline 100; for SCORE RELATIONSHIPS / SCORE MOOD / SCORE ENJOYMENT / SCORE SLEEP / SCORE WALKING / SCORE GENERAL ACTIVITY / SCORE TOTAL ACTIVITY: pain interference 1-10; for SCORE RELATIONSHIPS / SCORE NAUSEA / WHO PERFORMANCE STATUS: day 1 baseline 3; for SCORE MOOD / SCORE POOR APPETITE / SCORE UN[…] GAIT / PAIN SCORE RIGHT NOW: day 1 baseline 4; for SCORE ENJOYMENT / SCORE SLEEP: day 1 baseline 6; for SCORE WALKING: day 1 baseline 7; for SCORE GENERAL ACTIVITY / SCORE TOTAL ACTIVITY / AVERAGE PAIN LAST 24 HOURS: day 1 baseline 8; for SCORE CONSTIPATION / SCORE INDIGESTION / SCORE POOR CONCENTRATION / SCORE DROWSINESS / SCORE NAUSEA / SCORE POOR APPETITE / SCORE UN[…] GAIT: scale 1-4; for SCORE CONSTIPATION / SCORE INDIGESTION / SCORE POOR CONCENTRATION: day 1 baseline 1; for SCORE DROWSINESS: day 1 baseline 2; for LEAST PAIN LAST 24 HRS / PAIN SCORE RIGHT NOW / AVERAGE PAIN LAST 24 HOURS / WORST PAIN SCORE LAST 24 HOURS: scale to 10; for WHO PERFORMANCE STATUS: 0=fully active, 4=completely disabled
smiles,measurement,setting,value
CCOC(=O)Nc1ccc(NCc2ccc(F)cc2)nc1N [flupirtine],neuropathic discriminant function score,RM day 2,−0.228
same,electric pain score,RM day 2,0
same,freezing pain score,RM day 2,0
same,numbness score,RM day 2,0
same,score for increased pain due to touch,RM day 2,0
same,score for increased pain due to weather changes,RM day 2,0
same,squeezing pain score,RM day 2,0
same,PERCENTAGE PAIN RELIEF LAST 24 HOURS,RM day 2,15%
same,score for overly sensitive to touch,RM day 2,0
same,tingling pain score,RM day 2,0
same,burning pain score,RM day 2,70
same,overwhelming pain score,RM day 2,70
same,for shooting pain score,RM day 2,80
same,unpleasant pain score,RM day 2,95
same,SCORE RELATIONSHIPS,RM day 2,3
same,SCORE MOOD,RM day 2,4
same,SCORE ENJOYMENT,RM day 2,4
same,SCORE SLEEP,RM day 2,6
same,SCORE WALKING,RM day 2,6
same,SCORE GENERAL ACTIVITY,RM day 2,6
same,SCORE TOTAL ACTIVITY,RM day 2,6
same,SCORE CONSTIPATION,RM day 2,1
same,SCORE INDIGESTION,RM day 2,1
same,SCORE POOR CONCENTRATION,RM day 2,3
same,SCORE DROWSINESS,RM day 2,3
same,SCORE NAUSEA,RM day 2,1
same,SCORE POOR APPETITE,RM day 2,3
same,SCORE UN[…] GAIT,RM day 2,4
same,LEAST PAIN LAST 24 HRS,RM day 2,0
same,PAIN SCORE RIGHT NOW,RM day 2,6
same,AVERAGE PAIN LAST 24 HOURS,RM day 2,5
same,WORST PAIN SCORE LAST 24 HOURS,RM day 2,8
same,WHO PERFORMANCE STATUS,RM day 3,3
same,neuropathic discriminant function score,RM day 3,−1.008
same,electric pain score,RM day 3,0
same,freezing pain score,RM day 3,0
same,numbness score,RM day 3,0
same,score for increased pain due to touch,RM day 3,0
same,score for increased pain due to weather changes,RM day 3,0
same,squeezing pain score,RM day 3,0
same,PERCENTAGE PAIN RELIEF LAST 24 HOURS,RM day 3,15%
same,score for overly sensitive to touch,RM day 3,0
same,tingling pain score,RM day 3,0
same,burning pain score,RM day 3,0
same,overwhelming pain score,RM day 3,50
same,for shooting pain score,RM day 3,20
same,unpleasant pain score,RM day 3,75
same,SCORE RELATIONSHIPS,RM day 3,3
same,SCORE MOOD,RM day 3,4
same,SCORE ENJOYMENT,RM day 3,4
same,SCORE SLEEP,RM day 3,1
same,SCORE WALKING,RM day 3,6
same,SCORE GENERAL ACTIVITY,RM day 3,5
same,SCORE TOTAL ACTIVITY,RM day 3,5
same,SCORE CONSTIPATION,RM day 3,1
same,SCORE INDIGESTION,RM day 3,1
same,SCORE POOR CONCENTRATION,RM day 3,1
same,SCORE DROWSINESS,RM day 3,2
same,SCORE NAUSEA,RM day 3,1
same,SCORE POOR APPETITE,RM day 3,1
same,SCORE UN[…] GAIT,RM day 3,4
same,LEAST PAIN LAST 24 HRS,RM day 3,0
same,PAIN SCORE RIGHT NOW,RM day 3,8
same,AVERAGE PAIN LAST 24 HOURS,RM day 3,8
same,WORST PAIN SCORE LAST 24 HOURS,RM day 3,8
same,WHO PERFORMANCE STATUS,RM day 4,3
same,neuropathic discriminant function score,RM day 4,−1.138
same,electric pain score,RM day 4,0
same,freezing pain score,RM day 4,0
same,numbness score,RM day 4,0
same,score for increased pain due to touch,RM day 4,0
same,score for increased pain due to weather changes,RM day 4,0
same,squeezing pain score,RM day 4,0
same,PERCENTAGE PAIN RELIEF LAST 24 HOURS,RM day 4,75%
same,score for overly sensitive to touch,RM day 4,0
same,tingling pain score,RM day 4,0
same,burning pain score,RM day 4,0
same,overwhelming pain score,RM day 4,30
same,for shooting pain score,RM day 4,0
same,unpleasant pain score,RM day 4,60
same,SCORE RELATIONSHIPS,RM day 4,3
same,SCORE MOOD,RM day 4,2
same,SCORE ENJOYMENT,RM day 4,3
same,SCORE SLEEP,RM day 4,2
same,SCORE WALKING,RM day 4,5
same,SCORE GENERAL ACTIVITY,RM day 4,5
same,SCORE TOTAL ACTIVITY,RM day 4,5
same,SCORE CONSTIPATION,RM day 4,3
same,SCORE INDIGESTION,RM day 4,1
same,SCORE POOR CONCENTRATION,RM day 4,1
same,SCORE DROWSINESS,RM day 4,1
same,SCORE NAUSEA,RM day 4,2
same,SCORE POOR APPETITE,RM day 4,1
same,SCORE UN[…] GAIT,RM day 4,4
same,LEAST PAIN LAST 24 HRS,RM day 4,0
same,PAIN SCORE RIGHT NOW,RM day 4,2.5
same,AVERAGE PAIN LAST 24 HOURS,RM day 4,8
same,WORST PAIN SCORE LAST 24 HOURS,RM day 4,8
same,WHO PERFORMANCE STATUS,RM day 5,3
same,neuropathic discriminant function score,RM day 5,−1.003
same,electric pain score,RM day 5,0
same,freezing pain score,RM day 5,0
same,numbness score,RM day 5,0
same,score for increased pain due to touch,RM day 5,0
same,score for increased pain due to weather changes,RM day 5,0
same,squeezing pain score,RM day 5,0
same,PERCENTAGE PAIN RELIEF LAST 24 HOURS,RM day 5,65%
same,score for overly sensitive to touch,RM day 5,0
same,tingling pain score,RM day 5,0
same,burning pain score,RM day 5,0
same,overwhelming pain score,RM day 5,25
same,for shooting pain score,RM day 5,0
same,unpleasant pain score,RM day 5,80
same,SCORE RELATIONSHIPS,RM day 5,3
same,SCORE MOOD,RM day 5,3
same,SCORE ENJOYMENT,RM day 5,6
same,SCORE SLEEP,RM day 5,6
same,SCORE WALKING,RM day 5,5
same,SCORE GENERAL ACTIVITY,RM day 5,6
same,SCORE TOTAL ACTIVITY,RM day 5,6
same,SCORE CONSTIPATION,RM day 5,2
same,SCORE INDIGESTION,RM day 5,1
same,SCORE POOR CONCENTRATION,RM day 5,2
same,SCORE DROWSINESS,RM day 5,1
same,SCORE NAUSEA,RM day 5,1
same,SCORE POOR APPETITE,RM day 5,2
same,SCORE UN[…] GAIT,RM day 5,4
same,LEAST PAIN LAST 24 HRS,RM day 5,2
same,PAIN SCORE RIGHT NOW,RM day 5,5
same,AVERAGE PAIN LAST 24 HOURS,RM day 5,8
same,WORST PAIN SCORE LAST 24 HOURS,RM day 5,9
same,WHO PERFORMANCE STATUS,RM day 6,3
same,neuropathic discriminant function score,RM day 6,−1.168
same,electric pain score,RM day 6,0
same,freezing pain score,RM day 6,0
same,numbness score,RM day 6,0
same,score for increased pain due to touch,RM day 6,0
same,score for increased pain due to weather changes,RM day 6,0
same,squeezing pain score,RM day 6,0
same,PERCENTAGE PAIN RELIEF LAST 24 HOURS,RM day 6,50%
same,score for overly sensitive to touch,RM day 6,0
same,tingling pain score,RM day 6,0
same,burning pain score,RM day 6,0
same,overwhelming pain score,RM day 6,40
same,for shooting pain score,RM day 6,0
same,unpleasant pain score,RM day 6,60
same,SCORE RELATIONSHIPS,RM day 6,3
same,SCORE MOOD,RM day 6,4
same,SCORE ENJOYMENT,RM day 6,6
same,SCORE SLEEP,RM day 6,4
same,SCORE WALKING,RM day 6,6
same,SCORE GENERAL ACTIVITY,RM day 6,6
same,SCORE TOTAL ACTIVITY,RM day 6,6
same,SCORE CONSTIPATION,RM day 6,2
same,SCORE INDIGESTION,RM day 6,1
same,SCORE POOR CONCENTRATION,RM day 6,2
same,SCORE DROWSINESS,RM day 6,1
same,SCORE NAUSEA,RM day 6,2
same,SCORE POOR APPETITE,RM day 6,2
same,SCORE UN[…] GAIT,RM day 6,4
same,LEAST PAIN LAST 24 HRS,RM day 6,2
same,PAIN SCORE RIGHT NOW,RM day 6,6
same,AVERAGE PAIN LAST 24 HOURS,RM day 6,4
same,WORST PAIN SCORE LAST 24 HOURS,RM day 6,7
same,WHO PERFORMANCE STATUS,RM day 7,3
same,neuropathic discriminant function score,RM day 7,−1.168
same,electric pain score,RM day 7,0
same,freezing pain score,RM day 7,0
same,numbness score,RM day 7,0
same,score for increased pain due to touch,RM day 7,0
same,score for increased pain due to weather changes,RM day 7,0
same,squeezing pain score,RM day 7,0
same,PERCENTAGE PAIN RELIEF LAST 24 HOURS,RM day 7,75%
same,score for overly sensitive to touch,RM day 7,0
same,tingling pain score,RM day 7,0
same,burning pain score,RM day 7,0
same,overwhelming pain score,RM day 7,20
same,for shooting pain score,RM day 7,0
same,unpleasant pain score,RM day 7,50
same,SCORE RELATIONSHIPS,RM day 7,3
same,SCORE MOOD,RM day 7,6
same,SCORE ENJOYMENT,RM day 7,6
same,SCORE SLEEP,RM day 7,6
same,SCORE WALKING,RM day 7,6
same,SCORE GENERAL ACTIVITY,RM day 7,5
same,SCORE TOTAL ACTIVITY,RM day 7,5
same,SCORE CONSTIPATION,RM day 7,2
same,SCORE INDIGESTION,RM day 7,1
same,SCORE POOR CONCENTRATION,RM day 7,2
same,SCORE DROWSINESS,RM day 7,1
same,SCORE NAUSEA,RM day 7,2
same,SCORE POOR APPETITE,RM day 7,3
same,SCORE UN[…] GAIT,RM day 7,4
same,LEAST PAIN LAST 24 HRS,RM day 7,0
same,PAIN SCORE RIGHT NOW,RM day 7,5
same,AVERAGE PAIN LAST 24 HOURS,RM day 7,3
same,WORST PAIN SCORE LAST 24 HOURS,RM day 7,5
same,WHO PERFORMANCE STATUS,RM day 8,3
same,electric pain score,RM day 8,0
same,freezing pain score,RM day 8,0
same,numbness score,RM day 8,0
same,score for increased pain due to touch,RM day 8,0
same,score for increased pain due to weather changes,RM day 8,0
same,squeezing pain score,RM day 8,0
same,PERCENTAGE PAIN RELIEF LAST 24 HOURS,RM day 8,75* %
same,score for overly sensitive to touch,RM day 8,0*
same,tingling pain score,RM day 8,0*
same,burning pain score,RM day 8,0*
same,overwhelming pain score,RM day 8,20*
same,for shooting pain score,RM day 8,0*
same,unpleasant pain score,RM day 8,45*
same,SCORE RELATIONSHIPS,RM day 8,3
same,SCORE MOOD,RM day 8,4*
same,SCORE ENJOYMENT,RM day 8,4*
same,SCORE SLEEP,RM day 8,1*
same,SCORE WALKING,RM day 8,6*
same,SCORE GENERAL ACTIVITY,RM day 8,5*
same,SCORE TOTAL ACTIVITY,RM day 8,5*
same,SCORE CONSTIPATION,RM day 8,3
same,SCORE INDIGESTION,RM day 8,1
same,SCORE POOR CONCENTRATION,RM day 8,2
same,SCORE DROWSINESS,RM day 8,1*
same,SCORE NAUSEA,RM day 8,3
same,SCORE UN[…] GAIT,RM day 8,4
same,LEAST PAIN LAST 24 HRS,RM day 8,1
same,PAIN SCORE RIGHT NOW,RM day 8,7
